From patent US11814367B2, “Inhibitors of glycogen synthase 1 (GYS1) and methods of use thereof” (Maze Therapeutics, Inc., priority 2021, dated 2023)

Legend:
[1] = molecular target: hGYS2 enzyme (recombinant hGYS2/GN1 protein) (Homo sapiens (Human), UniProt P54840); test: GYS2 coupled enzyme assay (PK/LDH); format: biochemical; details: geometric mean of at least 2 assay runs on separate days, read-out: Avg_IC50
Summary of the method: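 hGYS2/GN1 200 nM; UDP-Glc 2 mM; glycogen 0.2%; G6P 2 mM; PEP 2 mM, NADH 0.6 mM, PK/LDH 20 U/mL. 50 mM Tris pH 7.5, MgCl2, KCl, BSA, TCEP, 2.5% DMSO. Kinetic A340, 10 min. IC50 = geomean of ≥2 runs.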

[2] = molecular target: hGYS1 enzyme (recombinant hGYS1/GN1 protein) (Homo sapiens (Human), UniProt P13807); test: GYS1 coupled enzyme assay (PK/LDH); format: biochemical; details: hGYS1/GN1 50 nM, UDP-Glucose 0.8 mM, G6P 1 mM; geometric mean of at least 2 runs
[3] = system: hGYS1 enzyme / glycogen synthesis in HeLa cells; test: GYS1 cell based assay (glycogen synthesis, Glucose-glo); set-up: species or system human; details: Homo sapiens, HeLa, 24 h, 24 h incubation, 20 mM glucose, geometric mean of at least 2 runs
Summary of the method: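 HeLa cells starved 24 h in medium containing only 1× Glutamax were plated onto compound in medium with 20 mM glucose (1% DMSO final) for 24 h, 37 °C, 5% CO2. Acid lysates were Tris-quenched, glucoamylase-digested (pH 5.3, 1 h, 37 °C) and read by Glucose-glo luminescence. IC50 came from Hill fits, as geometric mean of ≥2 runs.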

Sequence of hGYS1 enzyme (recombinant hGYS1/GN1 protein) (P13807 whole entry): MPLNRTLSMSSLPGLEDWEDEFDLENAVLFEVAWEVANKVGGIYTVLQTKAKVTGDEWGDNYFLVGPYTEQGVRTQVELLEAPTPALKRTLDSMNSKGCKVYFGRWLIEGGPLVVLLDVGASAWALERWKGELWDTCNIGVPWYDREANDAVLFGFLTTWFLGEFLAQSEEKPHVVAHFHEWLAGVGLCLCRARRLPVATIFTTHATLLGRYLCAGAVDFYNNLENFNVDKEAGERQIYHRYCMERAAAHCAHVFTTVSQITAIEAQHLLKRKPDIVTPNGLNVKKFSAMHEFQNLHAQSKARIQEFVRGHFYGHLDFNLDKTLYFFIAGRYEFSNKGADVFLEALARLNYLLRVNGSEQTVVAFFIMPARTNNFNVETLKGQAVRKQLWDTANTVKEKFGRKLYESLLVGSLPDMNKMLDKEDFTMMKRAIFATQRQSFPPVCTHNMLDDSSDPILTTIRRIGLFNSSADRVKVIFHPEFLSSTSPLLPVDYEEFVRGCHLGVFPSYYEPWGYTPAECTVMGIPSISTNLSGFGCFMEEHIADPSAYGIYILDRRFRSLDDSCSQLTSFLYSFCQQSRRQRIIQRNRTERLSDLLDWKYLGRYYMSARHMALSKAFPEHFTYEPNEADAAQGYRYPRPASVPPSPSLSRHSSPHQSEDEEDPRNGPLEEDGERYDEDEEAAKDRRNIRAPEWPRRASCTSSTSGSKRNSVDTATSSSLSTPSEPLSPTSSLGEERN
Sequence of hGYS1 enzyme (recombinant hGYS1/GN1 protein) (P46976 whole entry partner): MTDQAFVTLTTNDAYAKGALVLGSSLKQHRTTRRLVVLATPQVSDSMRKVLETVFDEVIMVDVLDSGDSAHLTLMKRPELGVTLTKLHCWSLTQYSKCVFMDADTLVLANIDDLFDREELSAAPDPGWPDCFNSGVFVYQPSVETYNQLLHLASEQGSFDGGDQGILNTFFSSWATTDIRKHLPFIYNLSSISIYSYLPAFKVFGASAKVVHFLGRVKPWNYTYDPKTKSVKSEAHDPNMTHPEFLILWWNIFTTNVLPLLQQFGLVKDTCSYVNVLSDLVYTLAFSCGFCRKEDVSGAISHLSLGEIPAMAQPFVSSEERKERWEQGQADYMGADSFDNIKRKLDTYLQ
Sequence of hGYS2 enzyme (recombinant hGYS2/GN1 protein) (P54840 whole entry): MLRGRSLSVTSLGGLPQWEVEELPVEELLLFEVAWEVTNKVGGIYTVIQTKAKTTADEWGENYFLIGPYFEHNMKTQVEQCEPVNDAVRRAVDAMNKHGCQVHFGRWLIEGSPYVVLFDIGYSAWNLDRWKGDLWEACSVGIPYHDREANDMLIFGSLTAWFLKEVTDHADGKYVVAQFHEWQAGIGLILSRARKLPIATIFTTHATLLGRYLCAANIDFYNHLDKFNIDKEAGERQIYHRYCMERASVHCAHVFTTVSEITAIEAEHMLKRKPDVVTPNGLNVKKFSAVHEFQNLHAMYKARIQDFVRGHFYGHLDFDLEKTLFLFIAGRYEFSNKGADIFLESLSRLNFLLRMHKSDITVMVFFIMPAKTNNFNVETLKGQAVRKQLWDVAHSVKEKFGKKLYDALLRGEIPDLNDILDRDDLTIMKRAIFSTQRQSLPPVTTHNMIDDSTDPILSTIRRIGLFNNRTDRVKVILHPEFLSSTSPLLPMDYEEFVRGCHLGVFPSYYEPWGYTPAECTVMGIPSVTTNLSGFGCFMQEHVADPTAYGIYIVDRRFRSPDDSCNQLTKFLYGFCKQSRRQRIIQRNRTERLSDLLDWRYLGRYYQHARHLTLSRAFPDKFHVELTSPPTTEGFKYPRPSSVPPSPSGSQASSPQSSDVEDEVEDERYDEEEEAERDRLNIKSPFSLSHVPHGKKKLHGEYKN
Sequence of hGYS2 enzyme (recombinant hGYS2/GN1 protein) (P46976 whole entry partner): as the sequence (P46976 whole entry partner) above

| IC50 [1] [µM] | IC50 [2] [µM] | IC50 [3] [µM] | SMILES |
| --- | --- | --- | --- |
| > 100 | 0.012 | 0.2 | CC(C)c1ccc([C@@H](NC(=O)[C@@H]2C[C@@H](F)CN2C(=O)Cn2cnc3ccccc32)c2ccccc2)nc1 [Compound 248, (2S,4R)-1-[2-(1H-1,3-benzodiazol-1-yl)acetyl]-4-fluoro-N-[(S)-phenyl[5-(propan-2-yl)pyridin-2-yl]methy]pyrrolidine-2-carboxamide] |
| > 100 | 0.021 | 1.15 | Cc1cn(CC(=O)N2C[C@H](F)C[C@H]2C(=O)N[C@@H](c2ccccc2)c2ccc(C(C)C)cn2)c(=O)[nH]c1=O [Compound 249, (2S,4R)-4-fluoro-1-[2-(5-methyl-2,4-dioxo-1,2,3,4-tetrahydropyrimidin-1-yl)acetyl]-N-[(S)-phenyl[5-(propan-2-yl)pyridin-2-yl]methyl]pyrrolidine-2-carboxamide] |
| > 100 | 0.043 | 1.27 | CC(C)c1ccc([C@@H](NC(=O)[C@@H]2C[C@@H](F)CN2C(=O)CNC(=O)N(C)C)c2ccccc2)nc1 [Compound 250, (2S,4R)-1-{2-[(dimethylcarbamoyl)amino]acetyl}-4-fluoro-N-[(S)-phenyl[5-(propan-2-yl)pyridin-2-yl]methyl]pyrrolidine-2-carboxamide] |
| > 100 | 0.186 | 2.48 | CC(C)c1ccc([C@@H](NC(=O)[C@@H]2C[C@@H](F)CN2C(=O)Cn2cnnn2)c2ccccc2)nc1 [Compound 252, (2S,4R)-4-fluoro-N-[(S)-phenyl[5-(propan-2-yl)pyridin-2-yl]methyl}-1-[2-(1H-1,2,3-tetrazol-1-yl)acetyl]pyrrolidine-2-carboxamide] |
| > 100 | 0.067 | 1.09 | CC(C)c1ccc([C@@H](NC(=O)[C@@H]2C[C@@H](F)CN2C(=O)Cc2nnc(C(F)F)o2)c2ccccc2)nc1 [Compound 253, (2S,4R)-1-{2-[5-(difluoromethyl)-1,3,4-oxadiazol-2-yl]acetyl}-4-flouro-N-[(S)-phenyl[5-(propan-2-yl)pyridin-2-yl]methyl]pyrrolidine-2-carboxamide] |
| > 100 | 0.075 | 1.23 | CC(C)c1ccc([C@@H](NC(=O)[C@@H]2C[C@@H](F)CN2C(=O)Cn2nnnc2C(F)F)c2ccccc2)nc1 [Compound 254, (2S,4R)-1-{2-[5-(difluoromethyl)-1H-1,2,3-tetrazol-1-yl]acetyl}-4-fluoro-N-[(S)-phenyl[5-(propan-2-yl)pyridin-2-yl]methyl]pyrrolidine-2-carboxamide] |
| > 100 | 0.088 | 1.01 | CC(C)c1ccc([C@@H](NC(=O)[C@@H]2C[C@@H](F)CN2C(=O)Cn2nnc(C(F)(F)F)n2)c2ccccc2)nc1 [Compound 255, (2S,4R)-4-fluoro-N-[(S)-phenyl[5-(propan-2-yl)pyridin-2-yl]methyl]-1-{2-[5-(trifluoromethyl)-2H-1,2,3,4-tetrazol-2-yl]acetyl}pyrrolidine-2-carboxamide] |
| > 100 | 0.039 | 0.99 | CC(C)c1ccc([C@@H](NC(=O)[C@@H]2C[C@@H](F)CN2C(=O)Cn2nnc(C(F)F)n2)c2ccccc2)nc1 [Compound 256, (2S,4R)-1-{2-[5-(difluoromethyl)-2H-1,2,3,4-tetrazol-2-yl]acetyl}-4-fluoro-N-[(S)-phenyl[5-(propan-2-yl)pyridin-2-yl]methyl]pyrrolidine-2-carboxamide] |
| > 100 | 0.007 | 0.24 | Cc1ccc2c(CC(=O)N3C[C@H](F)C[C@H]3C(=O)N[C@@H](c3ccccc3)c3ccc(C(C)C)cn3)cccc2n1 [Compound 257, (2S,4R)-4-fluoro-1-[2-(2-methylquinolin-5-yl)acetyl]-N-[(S)-phenyl[5-(propan-2-yl)pyridin-2-yl]methyl]pyrrolidine-2-carboxamide] |
| > 100 | 0.026 | 0.74 | CC(C)c1ccc([C@@H](NC(=O)[C@@H]2C[C@@H](F)CN2C(=O)Cc2cccn3c(=O)[nH]nc23)c2ccccc2)nc1 [Compound 258, (2S,4R)-4-fluoro-1-(2-{3-oxo-2H,3H-[1,2,4]triazolo[4,3-a]pyridin-8-yl}acetyl)-N-[(S)-phenyl[5-(propan-2-yl)pyridin-2-yl]methyl]pyrrolidine-2-carboxamide] |
| > 100 | 0.015 | 0.28 | CC(C)c1ccc([C@@H](NC(=O)[C@@H]2C[C@@H](F)CN2C(=O)Cn2ncc(N(C)C)n2)c2ccccc2)nc1 [Compound 259, (2S,4R)-1-{2-[4-(dimethylamino)-2H-1,2,3-triazol-2-yl]acety}-4-fluoro-N-[(S)-phenyl[5-(propan-2-yl)pyridin-2-yl]methyl]pyrrolidine-2-carboxamide] |
| > 100 | 0.035 | 0.53 | CC(C)c1ccc([C@@H](NC(=O)[C@@H]2C[C@@H](F)CN2C(=O)Cn2cc(N(C)C)nn2)c2ccccc2)nc1 [Compound 260, (2S,4R)-1-{2-[4-(dimethylamino)-1H-1,2,3-triazol-1-yl]acetyl}-4-fluoro-N-[(S)-phenyl[5-(propan-2-yl)pyridin-2-yl]methyl]pyrrolidine-2-carboxamide] |
| > 100 | 0.059 | 1.8 | CNC(=O)NCC(=O)N1C[C@H](F)C[C@H]1C(=O)N[C@@H](c1ccccc1)c1ccc(C(C)C)cn1 [Compound 261, (2S,4R)-4-fluoro-1-{2-[(methylcarbamoyl)amino]acetyl}-N-[(S)-phenyl[5-(propan-2-yl)pyridin-2-yl]methyl]pyrrolidine-2-carboxamide] |
| > 100 | 0.062 | 3.63 | CC(C)c1ccc([C@@H](NC(=O)[C@@H]2C[C@@H](F)CN2C(=O)CNC(N)=O)c2ccccc2)nc1 [Compound 262, (2S,4R)-1-[2-(carbamoylamino)acetyl]-4-fluoro-N-[(S)-phenyl[5-(propan-2-yl)pyridin-2-yl]methyl]pyrrolidine-2-carboxamide] |
| > 100 | 0.08 | 1.95 | CC(C)c1ccc([C@@H](NC(=O)[C@@H]2C[C@@H](F)CN2C(=O)Cc2nn(C)c(=O)[nH]2)c2ccccc2)nc1 [Compound 263, (2S,4R)-4-fluoro-1-[2-(1-methyl-5-oxo-4,5-dihydro-1H-1,2,4-triazol-3-yl)acetyl]-N-[(S)-phenyl[5-(propan-2-yl)pyridin-2-yl]methyl]pyrrolidine-2-carboxamide] |
| > 100 | 0.13 | 4.29 | CC(C)c1ccc([C@@H](NC(=O)[C@@H]2C[C@@H](F)CN2C(=O)Cc2n[nH]c(=O)n2C)c2ccccc2)nc1 [Compound 264, (2S,4R)-4-fluoro-1-[2-(4-methyl-5-oxo-4,5-dihydro-1H-1,2,4-triazol-3-yl)acetyl]-N-[(S)-phenyl[5-(propan-2-yl)pyridin-2-yl]methyl]pyrrolidine-2-carboxamide] |
| > 100 | 0.041 | 0.83 | CC(C)c1ccc([C@@H](NC(=O)[C@@H]2C[C@@H](F)CN2C(=O)CNC(=O)N2CCC2)c2ccccc2)nc1 [Compound 265, (2S,4R)-1-{2-[(azetidine-1-carbonyl)amino]acetyl}-4-fluoro-N-[(S)-phenyl[5-(propan-2-yl)pyridin-2-yl]methyl]pyrrolidine-2-carboxamide] |
| > 100 | 0.089 | 1.22 | CC(C)c1ccc([C@@H](NC(=O)[C@@H]2C[C@@H](F)CN2C(=O)Cc2nn(C)c(=O)o2)c2ccccc2)nc1 [Compound 266, (2S,4R)-4-fluoro-1-[2-(4-methyl-5-oxo-4,5-dihydro-1,3,4-oxadiazol-2-yl)acetyl]-N-[(S)-phenyl[5-(propan-2-yl)pyridin-2-yl]methyl]pyrrolidine-2-carboxamide] |
| > 100 | 0.018 | 0.83 | CC(C)c1ccc([C@@H](NC(=O)[C@@H]2C[C@@H](F)CN2C(=O)Cc2[nH]nnc2C(F)(F)F)c2ccccc2)nc1 [Compound 268, (2S,4R)-4-fluoro-N-[(S)-phenyl[5-(propan-2-yl)pyridin-2-yl]methyl]-1-{2-[4-(trifluoromethyl)-1H-1,2,3-triazol-5-yl]acetyl}pyrrolidine-2-carboxamide] |
| > 100 | 0.014 | 0.24 | Cc1nccc(NCC(=O)N2C[C@H](F)C[C@H]2C(=O)N[C@@H](c2ccccc2)c2ccc(C(C)C)cn2)n1 [Compound 269, (2S,4R)-4-fluoro-1-{2-[(2-methylpyrimidin-4-yl)amino]acetyl}-N-[(S)-phenyl[5-(propan-2-yl)pyridin-2-yl]methyl]pyrrolidine-2-carboxamide] |
| > 100 | 0.096 | 1.4 | CC(C)c1ccc([C@@H](NC(=O)[C@@H]2C[C@@H](F)CN2C(=O)Cc2ncco2)c2ccccc2)nc1 [Compound 270, (2S,4R)-4-fluoro-1-[2-(1,3-oxazol-2-yl)acetyl]-N-[(S)-phenyl[5-(propan-2-yl)pyridin-2-yl]methyl]pyrrolidine-2-carboxamide] |
| > 100 | 0.036 | 0.87 | Cc1cnc(CC(=O)N2C[C@H](F)C[C@H]2C(=O)N[C@@H](c2ccccc2)c2ccc(C(C)C)cn2)o1 [Compound 271, (2S,4R)-4-fluoro-1-[2-(5-methyl-1,3-oxazol-2-yl)acetyl]-N-[(S)-phenyl[5-(propan-2-yl)pyridin-2-yl]methyl]pyrrolidine-2-carboxamide] |
